Assay results reported in publication PMC5608341, “The human VGF-derived bioactive peptide TLQP-21 binds heat shock 71 kDa protein 8 (HSPA8)on the surface of SH-SY5Y cells” (PLoS ONE, 2017).
Where no end group is shown, it is not given here. The star is where a group is joined. Biotin = O=C1N[C@H]2[C@H](CS[C@H]2CCCCC(=O)*)N1

Legend:
[1] = tested on: HSPA8 on the surface of SH-SY5Y cells; assay: Crosslinking of biotinylated TLQP-21 to live SH-SY5Y surface membrane proteins, avidin affinity, Western blot; format: binding, human; settings: 50 μM biotin-TLQP-21, 1 mM Sulfo-EMCS, 1 hour, room temperature; versus control without peptide
Procedure: After electrophoresis, as described earlier, proteins were transferred onto PVDF membranes (Millipore, Bedford) using semi-dry method (Trans-blot SD semi-dry transfer cell, Biorad). The membranes were then blocked 5% BSA in TBS-T solution (Tris-buffered saline with 0.1% tween 20, pH = 7.6) for 1 hour at room temperature, and probed with anti-HSC70/HSPA8 (Abcam) antibody at 1:500 dilution. Anti-rabbit antibody (Dako) at a 1:2000 dilution was used as the secondary antibody. Subsequently, the membrane was incubated with Luminata Forte Western HRP substrate [Merck Millipore] for 5 minutes and developed using Hypercassette and Amersham hyperfilm (GE Healthcare).
SH-SY5Y cells were grown as described above until confluence. Culture medium was removed, cells were washed three times with cold PBS and incubated with 2 mL of PBS containing 1 mM Sulfo-EMCS with 50 μM biotin-TLQP-21 for 1 hour at room temperature. Control cells were incubated under the same conditions with the same reaction mixture lacking biotin-TLQP-21. The cross-linking reaction was stopped adding Tris-HCl, pH 7.8 to a final concentration 50 mM. Cells were washed twice with cold PBS and solubilized in lysis buffer (20 mM HEPES pH 7.4, 2 mM EGTA, 1 mM DTT, 1 mM sodium orthovanadate, 1% Triton X-100, 10% glycerol, 2 μM leupeptin, 400 μM PMSF, 50 μM β-glycerophosphate and 100 μg/ml aprotinin). […]

[2] = tested on: Heat shock cognate 71 kDa protein (HSPA8/HSC70); assay: Avidin-agarose affinity chromatography of SH-SY5Y cell homogenate with biotin-TLQP-21, SDS-PAGE/SYPRO Ruby and MASCOT MS/MS identification; HSPA8; format: binding, human; settings: fractions 4-5, control column without biotin-TLQP-21
Procedure: Portions (25 μl) of each elution fraction from avidin-agarose affinity chromatography were boiled in 2x Laemmli buffer and loaded to a 10% SDS-PAGE gel. Electrophoresis was carried out at 200V for 60 minutes. After completion, the gel was washed in dH2O for 10 minutes. […] The gel was then transferred to a clean staining container, and washed for 5 minutes with fixing solution followed by washing for 5 minutes in dH2O.Finally, the gel was imaged in a Molecular Imager Gel Doc system (Bio Rad, Hercules) using the highest sensitivity of the CCD camera (CoolSNAP HQ2, Roper Scientific) at a resolution of 1392 x 1040 pixels with 12 bit gray scale levels per pixel. […] Extracted peptides were analyzed by LC-MS/MS. […] Ionized peptides were detected in a Bruker Amazon ETD ion trap. Automated analysis of mass data was performed by Data Analysis 4.0 and BioTools 3.2 from Bruker Daltonik GmbH. Database search was done with the Mascot v2.3 search tool (Matrix Science) screening SwissProt (release 57.15). Searches were limited to human taxonomy selecting carbamidomethyl cysteine as a fixed modification and oxidized methionine as potential variable modification. […] All spectra and database results were scrutinized manually in details using the above software, especially in the case of identifications based on one peptide hit. […]

HSPA8 [3] = settings: pooled fractions 4 and 5, anti-HSPA8 1:500, three replicates, versus control fractions
Procedure: A monomeric avidin column (Thermo Scientific) was washed with 8 ml PBS followed by addition of 6 ml (2 mM D-biotin in PBS, pH = 7.2) to block any non-reversible biotin binding sites. Regeneration buffer (0.1M glycine, pH 2.8, 12 ml) was added to remove biotin from the reversible binding sites followed by washing with 8 ml of PBS. One ml of 0.1 mM biotin-TLQP-21 was mixed with 900 μl of PBS and 100 μl of 1mM TCEP and the resulting solution was applied to the column, which was incubated for an hour at room temperature. The column was then washed with 12 ml of PBS. A 2ml solution containing 700 μl of SH-SY5Y cell lysate with a protein concentration of 10μg/μl was diluted with 1.3 ml of PBS and applied then to the column. The column was then washed with 12 ml of PBS, and eluted with 10 ml of blocking/elution buffer. Fractions of 500 μl were collected and kept on ice until further use for analysis by SYPRO® Ruby Protein Gel Stain (Lonza), and Western blot. As a control, cell lysate solution was added under the same conditions to a column to which biotin-TLQP-21 was not attached.
After electrophoresis, as described earlier, proteins were transferred onto PVDF membranes (Millipore, Bedford) using semi-dry method (Trans-blot SD semi-dry transfer cell, Biorad). […]

HSPA8 [4] = target: T1, HSPA8 (Homo sapiens, UniProt P11142); settings: ref [45]; read-out: affinity of HSPA8 for the phosphorylated peptide P140; cited from earlier work
T1 construct: HSPA8 immobilization was performed by adding 15 μl of 25 μg/ml of protein in 20 mM sodium acetate buffer

[5] = tested on: complement component-3a receptor 1 (C3AR1); settings: ref [27]–[28]; cited from earlier work
Text: (§1) Remarkably, despite the large volume of data on effects of VGF-derived peptides, very little is known about their receptors, downstream signaling routes and mechanisms of action. […] We reasoned that the neuroblastoma cell line SH-SY5Y would be a good model to study receptors and downstream mechanisms of VGF-derived peptides, given the substantial expression and secrete levels of VGF and VGF-derived ...

[6] = tested on: globular head of the complement component C1q receptor (gC1qR); settings: ref [29]; cited from earlier work
Text: as §1

T1 sequence (P11142 whole entry): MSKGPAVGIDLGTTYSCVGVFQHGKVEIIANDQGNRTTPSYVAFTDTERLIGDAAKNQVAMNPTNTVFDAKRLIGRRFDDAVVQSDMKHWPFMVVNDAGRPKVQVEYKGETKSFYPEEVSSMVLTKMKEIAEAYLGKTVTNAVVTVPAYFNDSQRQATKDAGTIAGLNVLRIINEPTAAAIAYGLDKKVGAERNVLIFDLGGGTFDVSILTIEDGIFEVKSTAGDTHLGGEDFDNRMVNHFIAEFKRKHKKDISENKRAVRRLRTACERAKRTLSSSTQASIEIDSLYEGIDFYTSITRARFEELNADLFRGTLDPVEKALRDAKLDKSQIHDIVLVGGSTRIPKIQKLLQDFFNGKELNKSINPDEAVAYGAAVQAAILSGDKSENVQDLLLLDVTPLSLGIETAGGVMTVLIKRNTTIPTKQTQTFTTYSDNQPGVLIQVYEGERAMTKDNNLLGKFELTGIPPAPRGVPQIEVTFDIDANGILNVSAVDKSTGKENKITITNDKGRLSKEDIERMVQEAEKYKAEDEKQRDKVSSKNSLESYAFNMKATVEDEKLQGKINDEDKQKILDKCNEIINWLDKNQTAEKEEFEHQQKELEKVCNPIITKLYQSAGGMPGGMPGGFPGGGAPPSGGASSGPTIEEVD

Biotin-TLQPPSALRRRHYHHALPPSRC [biotin-TLQP-21, amino-terminally biotinylated human TLQP-21 containing an extra cysteine residue at the C-terminus]
cross-linking to HSPA8 on live cell surface [1]: A positive ~70kDa band corresponding to HSPA8 was detected | ~70 kDa protein bound on biotin-TLQP-21 column (SYPRO Ruby) [2]: A ~70 kDa protein was bound | ~70 kDa protein bound on biotin-TLQP-21 column (SYPRO Ruby) ([2]; listed as biotinyl-TLQP-21): a protein band of ∼70 kDa was detected by SYPRO Ruby staining | Western blot detection of HSPA8 in eluate of biotin-TLQP-21 column (HSPA8 [3]): confirmed the ~70 kDa protein as HSPA8 but not in the controls

P140: phosphorylated peptide P140, corresponds to a portion of the spliceosomal U1-70K snRNP protein, recognized by lupus CD4+ T cells (RIHMVYSKRSGKPRGYAFIEY; phospho-Ser140 (10th residue of the peptide); P140/Lupuzor is conventionally U1-70K (SNRNP70) 131-151)
Kd (HSPA8 [4]): ~7 µM

TLQPPASSRRRHFHHALPPAR [murine TLQP-21, mouse TLQP-21]
C3AR1 as receptor [5]: identified as potential receptors | gC1qR as receptor [6]: identified as potential receptors
